What was measured:
Assay in all cases: periodate / malachite green phosphate assay, Lineweaver-Burk
Format in all cases: biochemical, synthetic construct
ATM_T4 = test system: T1, ATM_T4; conditions: 15 mM NH4Cl, 10 mM imidazole-HCl pH 7.8, 83 °C (Topt)
T1 construct: reconstructed node T ancestor, one of four (125/126 Ser/Lys or Thr/Glu); gene by GenScript, pBAD TOPO, E. coli TOP10
Description: periodate / malachite green phosphate assay, Lineweaver-Burk on ATM_T4

AAM_A1 = test system: T2, AAM_A1; conditions: 15 mM NH4Cl, 10 mM imidazole-HCl pH 7.8, 99 °C (Topt)
T2 construct: gene by GenScript, pBAD TOPO, E. coli TOP10
Description: periodate / malachite green phosphate assay, Lineweaver-Burk on AAM_A1

ATM_T1 = test system: T3, ATM_T1; conditions: 15 mM NH4Cl, 10 mM imidazole-HCl pH 7.8, 90 °C (Topt)
T3 construct: reconstructed node T ancestor, one of four (125/126 Ser/Lys or Thr/Glu); gene by GenScript, pBAD TOPO, E. coli TOP10
Description: periodate / malachite green phosphate assay, Lineweaver-Burk on ATM_T1

AAM_A2 = test system: T4, AAM_A2; conditions: 15 mM NH4Cl, 10 mM imidazole-HCl pH 7.8, 99 °C (Topt)
T4 construct: gene by GenScript, pBAD TOPO, E. coli TOP10
Description: periodate / malachite green phosphate assay, Lineweaver-Burk on AAM_A2

ACM_C2 = test system: T5, ACM_C2; conditions: 15 mM NH4Cl, 10 mM imidazole-HCl pH 7.8, 95 °C (Topt)
T5 construct: gene by GenScript, pBAD TOPO, E. coli TOP10
Description: periodate / malachite green phosphate assay, Lineweaver-Burk on ACM_C2

ACM_C1 = test system: T6, ACM_C1; conditions: 15 mM NH4Cl, 10 mM imidazole-HCl pH 7.8, 95 °C (Topt)
T6 construct: gene by GenScript, pBAD TOPO, E. coli TOP10
Description: periodate / malachite green phosphate assay, Lineweaver-Burk on ACM_C1

ATM_T2 = test system: T7, ATM_T2; conditions: 15 mM NH4Cl, 10 mM imidazole-HCl pH 7.8, 83 °C (Topt)
T7 construct: reconstructed node T ancestor, one of four (125/126 Ser/Lys or Thr/Glu); gene by GenScript, pBAD TOPO, E. coli TOP10
Description: periodate / malachite green phosphate assay, Lineweaver-Burk on ATM_T2

ATM_T3 = test system: T8, ATM_T3; conditions: 15 mM NH4Cl, 10 mM imidazole-HCl pH 7.8, 85 °C (Topt)
T8 construct: reconstructed node T ancestor, one of four (125/126 Ser/Lys or Thr/Glu); gene by GenScript, pBAD TOPO, E. coli TOP10
Description: periodate / malachite green phosphate assay, Lineweaver-Burk on ATM_T3

## O=P(O)(O)OC[C@H]1OC(O)[C@H](O)[C@@H](O)[C@@H]1O (some centres unmarked) [glucose-6-phosphate]
ATM_T4
  Km: 600 ± 60 µM
AAM_A1
  Km: 2770 ± 600 µM
ATM_T1
  Km: 630 ± 100 µM
AAM_A2
  Km: 1320 ± 110 µM
ACM_C2
  Km: 6270 ± 1940 µM
ACM_C1
  Km: 2340 ± 460 µM
ATM_T2
  Km: 460 ± 80 µM
ATM_T3
  Km: 540 ± 150 µM

Reference: PMC3877268, “Reconstructed Ancestral Myo-Inositol-3-Phosphate Synthases Indicate That Ancestors of the Thermococcales and Thermotoga Species Were More Thermophilic than Their Descendants” (PLoS ONE, 2013)
